What was measured:
[1] = tested on: arterial actin-myosin interactions; assay: Inhibition of superprecipitation (antagonism of actin-myosin interaction), Silver et al.; type: biochemical; settings: six minute time-point
Procedure: . The data reported herein was obtained at a six minute time-point rather than the 1.5, 5 and 12 minute time points indicated in the superprecipita- tion assay of the Silver et al paper.
(§1) The following examples illustrate the preparation of a representative number of compounds of this invention. After each example, the Ca+2 antagonist activity of the compound is presented in terms of percent relaxation of aortic tissue (P.R.) at 10-^5M concentration. […] Inhibition of super- precipitation (Antag. of Actin-Myosin interaction) is expressed as percent inhibition (mean ± standard error of the mean for at least 3 separate experiments) at a compound concentration. In the same manner, inhibition of myosin light chain phosphorylation (Antag. of MLCP) is expressed as a percent inhibition at a compound concentration. Similarly, the antihypertensive activity is reported in terms of millimetres mercury (mmHg) systolic blood pressure (B.P.) reduction at the stated time post 50 mg/kg oral dosing or other dosing as indicated.

[2] = biological target: Ca^+2-calmodulin dependent myosin light chain phosphorylation (Bos taurus, UniProt Q28824); assay: Inhibition of myosin light chain phosphorylation (MLCP), Silver et al.; type: biochemical; settings: read-out: Antag. of MLCP (percent inhibition of myosin light chain phosphorylation)
Procedure: The data reported herein was obtained at a six minute time-point rather than the 1.5, 5 and 12 minute time points indicated in the superprecipita- tion assay of the Silver et al paper.
as §1

[3] = tested on: spontaneously hypertensive rats; assay: Hypotensive effect: systolic blood pressure of spontaneously hypertensive rats; type: in vivo; settings: mmHg per method
Procedure: The hypotensive in vivo effect of the compounds of this invention was determined by measuring changes in the systolic blood pressure of spontaneously hypertensive rats with a Decker Caudal Plethysmograph. The compound being tested was administered to a group of 4 rats and their systolic pressure was determined prior to and at 1.5 and 4 hours after compound administration. Initial testing was done by oral administration of the compound. Results (mmHg) are expressed as decreases in systolic blood pressure.
as §1

[4] = tested on: rabbit aortic smooth muscle; assay: Ca+2 antagonism: relaxation of KCl-depolarized rabbit aortic smooth muscle strips; settings: Oryctolagus cuniculus, 20 min, compound 1 x 10^-5M; 100mM KCl contraction; 20 minutes after addition; mean of two experiments; read-out: P.R. (percent relaxation of aortic tissue)
Procedure: The composition of PSS was as follows (mM): NaCl 112,KCI 5, NaHCO3 25 KH2PO4 1, MgSO4 1.2, CaCl2 2.5, dextrose 10. The lower end of each tissue strip was attached to a fixed post and the upper end to a Statham UC-4 transducer. Changes in force development were recorded on a Beckman Dynograph Polygraphic Recorder.
Following equilibration, the muscles were contracted in a depolarizing solution of PSS in which 100mM KCI was substituted for an equimolar concentration of NaCI. Following attainment of steady- state isometric force (20 min.), the test compound was added to afford a final concentration of 1 x 10^-5M. The inhibitory effect, expressed as percent relaxation, was determined from the mean of two experiments twenty minutes after the addition of the compound being tested.
as §1

[5] = tested on: isolated paced intact rabbit atria; assay: Cardiac depressant (negative inotropic) effect in isolated paced rabbit atria; settings: Oryctolagus cuniculus; rabbit atria paced at 3Hz, 30°C, cumulative dosing; read-out: IC25 (concentration which produces 25% inhibition of isometric force)
Procedure: The potential for detrimental cardiac depressant (negative inotropic) effects of the compounds of this invention was assessed in isolated paced intact rabbit atria. […] Muscles (N=5-9/compound) were stimulated at a frequency of 3Hz with a WPI stimulator for a 60 minute equilibration period. Changes in isometric force were recorded as described for the aortic smooth muscle experiments, supra. […]

[6] = dose 10mg/kg oral, at 1.5 hours
[7] = dose 25mg/kg oral, at 1.5 hours
[8] = dose 50mg/kg oral, at 1.5 hours

Row | SMILES | inhibition at 25 µM [2] [%] | inhibition at 50 µM [2] [%] | inhibition at 100 µM [2] [%] | inhibition at 10 µM ([2]; 10µM) [%] | Antag. of Actin-Myosin (percent inhibition of superprecipitation) ([1]; 25µM) [%] | Antag. of Actin-Myosin (percent inhibition of superprecipitation) ([1]; 50µM) [%] | B.P. (systolic blood pressure reduction) [3, 6] [mm] | inhibition at 10 µM [4] [%] | IC25 [5] [µM] | Antag. of Actin-Myosin (percent inhibition of superprecipitation) ([1]; 100µM) [%] | B.P. (systolic blood pressure reduction) [3, 7] [mm] | B.P. (systolic blood pressure reduction) ([3]; dose 25mg/kg oral, at 4 hours) [mm] | B.P. (systolic blood pressure reduction) [3, 8] [mm] | B.P. (systolic blood pressure reduction) ([3]; dose 50mg/kg oral, at 4 hours) [mm] | B.P. (systolic blood pressure reduction) ([3]; dose 10mg/kg oral, at 4 hours) [mm] | Antag. of Actin-Myosin (percent inhibition of superprecipitation) ([1]; 10µM) [%]
1 | CC1=C(C(=O)OCCOc2ccccc2)C(c2c(F)c(F)c(F)c(F)c2F)C2=C(CNCC2=O)N1 (racemic) [Example 2, 1,4,5,6,7,8-Hexahydro-2-methyl-5-oxo-4-(pentafluorophenyl)-1,7-naphthyridine-3-carboxylic acid 2-phenoxvethvl ester] | 24 ± 3 | 54 ± 4 | 69 ± 3 |  | 28± 2 | 58± 4 | -39 | 71 | 1 |  |  |  |  |  |  | 
2 | CC1=C(C(=O)OCCOc2ccccc2)C(c2c(F)c(F)c(F)c(F)c2F)C2=C(CNCC2=O)N1 (single isomer, unassigned; (-)) [Example 3, (-)-1,4,5,6,7,8-Hexahydro-2-methyl-5-oxo-4-(pentafluorophenyl)-1,7-naphthridine-3-carboxylic acid 2-phenoxyethyl ester] |  | 57 | 70 |  |  | 65 |  | 56 | > 10 | 76 | -6 | -14 |  |  |  | 
3 | CO[C@@H](COC(=O)C1=C(C)NC2=C(C(=O)CNC2)C1c1c(F)c(F)c(F)c(F)c1F)c1ccccc1 (stereo partly drawn) [Example 6, 1,4,5,6,7,8,-Hexahydro-2-methyl-5-oxo-4-(pentafluorophenyl)-1,7-naphthyridine-3-carboxylic acid (R)-2-methoxy-2-phenylethyl ester] |  | 56 | 70 |  |  | 64 | -56 | 71 | 0.6 | 74 |  |  |  |  | -49 | 
4 | CO[C@H](COC(=O)C1=C(C)NC2=C(C(=O)CNC2)C1c1c(F)c(F)c(F)c(F)c1F)c1ccccc1 (stereo partly drawn) [Example 7, 1,4,5,6,7,8-Hexahydro-2-methyl-5-oxo-4-(pentafluorophenyl)-1,7-naphthyridine-3-carboxylic acid (S)-2-methoxy-2-ohenylethyl ester] |  | 59 | 74 |  |  | 67 | -51 | 68 | 65 | 80 |  |  |  |  | -54 | 
5 | CC1=C(C(=O)OC(C)COc2ccccc2)C(c2c(F)c(F)c(F)c(F)c2F)C2=C(CNCC2=O)N1 (stereo not shown) [Example 13, 1,4,5,6,7,8-Hexahydro-2-methyl-5-oxo-4-(pentafluorophenyl)-1,7-naphthylidine-3-carboxylic acid 1-methvl-2-ahenoxvethvl ester] | 58 |  | 70 |  | 61 |  |  | 46 | 10 | 78 |  |  | -35 | -60 |  | 
6 | CC1=C(C(=O)OCC2COc3ccccc3O2)C(c2c(F)c(F)c(F)c(F)c2F)C2=C(CNCC2=O)N1 (stereo not shown) [Example 14, 1,4,5,6,7,8-Hexahydro-2-methyl-5-oxo-4-(pentafluorophenyl)-1,7-naphthyridine-3-carboxylic acid 2.3-dihvdro-1.4-benzodioxin-2-vimethvl ester] | 59 |  | 76 |  | 65 |  |  | 62 | 3.2 | 80 |  |  | -46 | -42 |  | 
7 | CC1=C(C(=O)OCCOc2ccccc2)C(c2ccccc2C)C2=C(CNCC2=O)N1 (stereo not shown) [Example 15, 1,4,5,6,7,8-Hexahydro-2-methyl-4-(2-methylphenyl)-5-oxo-1,7-naphthyridine-3-carboxylic arid 2-phenoxyethyl ester] |  |  |  |  |  |  |  | 63 | 4.7 | 66±5 | -29 | -39 |  |  |  | 

The next lines start with results.

Row | inhibition at 25 µM [2] [%] | inhibition at 50 µM [2] [%] | inhibition at 100 µM [2] [%] | inhibition at 10 µM ([2]; 10µM) [%] | SMILES | Antag. of Actin-Myosin (percent inhibition of superprecipitation) ([1]; 25µM) [%] | Antag. of Actin-Myosin (percent inhibition of superprecipitation) ([1]; 50µM) [%] | B.P. (systolic blood pressure reduction) [3, 6] [mm] | inhibition at 10 µM [4] [%] | IC25 [5] [µM] | Antag. of Actin-Myosin (percent inhibition of superprecipitation) ([1]; 100µM) [%] | B.P. (systolic blood pressure reduction) [3, 7] [mm] | B.P. (systolic blood pressure reduction) ([3]; dose 25mg/kg oral, at 4 hours) [mm] | B.P. (systolic blood pressure reduction) [3, 8] [mm] | B.P. (systolic blood pressure reduction) ([3]; dose 50mg/kg oral, at 4 hours) [mm] | B.P. (systolic blood pressure reduction) ([3]; dose 10mg/kg oral, at 4 hours) [mm] | Antag. of Actin-Myosin (percent inhibition of superprecipitation) ([1]; 10µM) [%]
8 | 38 ± 3 | 66 | 76 ± 2 |  | COC(COC(=O)C1=C(C)NC2=C(C(=O)CNC2)C1c1cccc(Cl)c1Cl)c1ccccc1 (stereo not shown) [Example 1, 4-(2,3-Dichloroohenyl)-1,4,5,6,7,8-hexahydro-2-methyl-5-oxo-1,7-naphthyridine-3-carboxylic acid 2-methoxy-2-phenylethyl ester] | 43± 2 | 75±3 |  | 32 | 10 | 83± 3 |  |  | -53 | -30 |  | 
9 | 35 ± 5 | 62 ± 1 | 75 ± 3 |  | COC(COC(=O)C1=C(C)NC2=C(C(=O)CNC2)C1c1cccc(Cl)c1C)c1ccccc1 (stereo not shown) [Example 10, 4-(3-chloro-2-methylphenyl)-1,4,5,6,7,8-hexahydro-2-methyl-5-oxo-1,7-naphthyridine-3-carboxylic acid 2-methoxy-2-phenylethyl ester] | 45±3 | 68±2 | -28 | 60 | > 10 | 76±2 |  |  |  |  | -19 | 
10 |  |  | 24 |  | COC(COC(=O)C1=C(C)NC2=C(C(=O)CNC2)C1c1ccccc1C(F)(F)F)c1ccccc1 (stereo not shown) [Example 12, 1,4,5,6,7,8-Hexahydro-2-methyl-5-oxo-4-[2-(trifluoromethyl)phenyl]-1,7-naphthyridine-3-carboxylic acid 2-methoxv-2-ohenvlethvl ester] |  |  |  | 39 | 2 | 30 | -56 | -56 |  |  |  | 
11 | 39 ± 2 | 59 ± 3 | 67 ± 2 | 11 | CC1=C(C(=O)OCCOc2ccccc2)C(c2cccc(Cl)c2C)C2=C(CNCC2=O)N1 (stereo not shown) [Example 17, 4-(3-Chloro-2-methylphenyl)-1,4,5,6,7,8-hexahydro-2-methyl-5-oxo-1,7-naphthyridine-3-carboxylic acid 2-phenoxyethyl ester] | 44±2 | 64±3 |  | 74 | 1 | 71±2 | -10 | -45 |  |  |  | 22
